Mortality data for 17 molecules are collected here from ChEMBL document CHEMBL3045559, “Natural-product-based chromenes as a novel class of potential termiticides” (2011).

Common to all, as to assay type: functional
The test system of assay [1] is Coptotermes formosanus. The assay is described as follows: Termiticidal activity against Coptotermes formosanus (third-instar worker and soldier) assessed as mortality at 1% wt/wt at 26.6 degC, 100% RH measured after 15 days (Rvb= 1.3 +/- 2.5 to 5 +/- 4.1%).
Assay [2] deals with Coptotermes formosanus. The assay is described as follows: Termiticidal activity against Coptotermes formosanus (third-instar worker and soldier) assessed as mortality at 1% wt/wt at 26.6 degC, 100% RH measured after 8 days (Rvb= 1.3 +/- 2.5%).
The subject of assay [3] is Coptotermes formosanus. Nature of the assay: Termiticidal activity against Coptotermes formosanus (third-instar worker and soldier) assessed as mortality at 1% wt/wt at 26.6 degC, 100% RH measured after 4 days (Rvb= 0%).
The subject of assay [4] is Coptotermes formosanus. Nature of the assay: Termiticidal activity against Coptotermes formosanus (third-instar worker and soldier) assessed as mortality at 1% wt/wt at 26.6 degC, 100% RH measured after 11 days (Rvb= 1.3 +/- 2.5%).
Assay [5] relates to Coptotermes formosanus. The assay is described as follows: Termiticidal activity against Coptotermes formosanus (third-instar worker and soldier) assessed as mortality at 1% wt/wt at 26.6 degC, 100% RH measured after 21 days (Rvb= 1.3 +/- 2.5%).
For assay [6], the system named is Coptotermes formosanus. Nature of the assay: Termiticidal activity against Coptotermes formosanus (third-instar worker and soldier) assessed as mortality at 1% wt/wt at 26.6 degC, 100% RH measured after 1 day (Rvb= 0%).
Assay [7] deals with Coptotermes formosanus. Nature of the assay: Termiticidal activity against Coptotermes formosanus (third-instar worker and soldier) assessed as mortality at 1% wt/wt at 26.6 degC, 100% RH measured after 18 days (Rvb= 1.3 +/- 2.5%).
The subject of assay [8] is Coptotermes formosanus. The assay is described as follows: Termiticidal activity against Coptotermes formosanus (third-instar worker and soldier) assessed as mortality at 0.5% wt/wt at 26.6 degC, 100% RH measured after 5 days.
Assay [9] concerns Coptotermes formosanus. The assay is described as follows: Termiticidal activity against Coptotermes formosanus (third-instar worker and soldier) assessed as mortality at 1% wt/wt at 26.6 degC, 100% RH measured after 21 days (Rvb= 1.3 +/- 2.5 to 5 +/- 4.1%).
For assay [10], the system named is Coptotermes formosanus. Nature of the assay: Termiticidal activity against Coptotermes formosanus (third-instar worker and soldier) assessed as mortality at 1% wt/wt at 26.6 degC, 100% RH measured after 3 days (Rvb= 0%).
The subject of assay [11] is Coptotermes formosanus. The assay is described as follows: Termiticidal activity against Coptotermes formosanus (third-instar worker and soldier) assessed as mortality at 1% wt/wt at 26.6 degC, 100% RH measured after 7 days (Rvb= 3.8 +/- 4.8%).
In assay [12] the test system is Coptotermes formosanus. Nature of the assay: Termiticidal activity against Coptotermes formosanus (third-instar worker and soldier) assessed as mortality at 1% wt/wt at 26.6 degC, 100% RH measured after 9 days (Rvb= 3.8 +/- 4.8%).
The test system of assay [13] is Coptotermes formosanus. The assay is described as follows: Termiticidal activity against Coptotermes formosanus (third-instar worker and soldier) assessed as mortality at 1% wt/wt at 26.6 degC, 100% RH measured after 17 days (Rvb= 5 +/- 4.1%).

By mortality is commonly meant the percentage killed. As to `CC1(C)C=Cc2ccc(CO)cc2O1`, the mortality was found to be 100% with Coptotermes formosanus [1]; 100% with Coptotermes formosanus [2]; 100% in the assay with Coptotermes formosanus [3]; 100% in the assay with Coptotermes formosanus [4]; 100% in the assay on Coptotermes formosanus [5]; 26.3% in the assay on Coptotermes formosanus [6]. The mortality in the assay on Coptotermes formosanus [7] came to 100%.

For `CC1(C)C=Cc2c(CO)cccc2O1`, the mortality in the assay on Coptotermes formosanus [1], in the assay on Coptotermes formosanus [8], in the assay on Coptotermes formosanus [2], in the assay on Coptotermes formosanus [3], in the assay with Coptotermes formosanus [4] and with Coptotermes formosanus [5] was 100% each time. In addition, the mortality was determined as 41.3% in the assay with Coptotermes formosanus [6] and 100% in the assay with Coptotermes formosanus [7].

Regarding `COC(=O)c1ccc2c(c1)OC(C)(C)C=C2`, the mortality in the assay with Coptotermes formosanus [1] amounted to 100%; in the assay on Coptotermes formosanus [2], 100%; in the assay with Coptotermes formosanus [3] it was 100%; in the assay on Coptotermes formosanus [4], 100%; with Coptotermes formosanus [5] it was 100%; in the assay on Coptotermes formosanus [6], 32.5%. Also, the mortality in the assay with Coptotermes formosanus [7] was 100%.

As for `COC(=O)c1cccc2c1C=CC(C)(C)O2`, the mortality came to 100% with Coptotermes formosanus [1]; 97.5% with Coptotermes formosanus [2]; 87.5% in the assay with Coptotermes formosanus [3]; 100% in the assay with Coptotermes formosanus [4]; 100% with Coptotermes formosanus [5]; 0% in the assay on Coptotermes formosanus [6]. For the same molecule, the mortality in the assay on Coptotermes formosanus [7] turned out to be 100%.

As for `CNCCc1ccc2c(c1)C=CC(C)(C)O2.Cl`, the mortality in the assay on Coptotermes formosanus [1] amounted to 2.5%; in the assay with Coptotermes formosanus [2] it was 0%; with Coptotermes formosanus [3], 0%; in the assay with Coptotermes formosanus [4] it was 1.3%; in the assay with Coptotermes formosanus [5], 3.8%; with Coptotermes formosanus [6], 0%. Moreover, the mortality with Coptotermes formosanus [7] is recorded as 2.5%.

As to `CC(C)NCc1ccc2c(c1)C=CC(C)(C)O2.Cl`, the mortality was found to be 80% with Coptotermes formosanus [1]; 55% in the assay with Coptotermes formosanus [2]; 20% in the assay with Coptotermes formosanus [3]; 72.5% with Coptotermes formosanus [4]; 88.8% in the assay on Coptotermes formosanus [5]; 8.8% in the assay on Coptotermes formosanus [6]. In addition, the mortality with Coptotermes formosanus [7] was determined as 88.8%.

Take `CC(C)NCCc1ccc2c(c1)C=CC(C)(C)O2.Cl`: the mortality was 7.5% in the assay on Coptotermes formosanus [1]; 3.8% in the assay on Coptotermes formosanus [2]; 3.8% in the assay on Coptotermes formosanus [3]; 5% with Coptotermes formosanus [4]; 15% in the assay with Coptotermes formosanus [5]; 3.75% with Coptotermes formosanus [6]. The mortality with Coptotermes formosanus [7] amounted to 8.8%.

In the case of `CC1(C)C=Cc2cc(CCO)ccc2O1`, the mortality in the assay on Coptotermes formosanus [1] is 70%; with Coptotermes formosanus [2], 33.8%; in the assay on Coptotermes formosanus [3], 10%; in the assay with Coptotermes formosanus [4], 56.3%; in the assay on Coptotermes formosanus [5], 73.8%; with Coptotermes formosanus [6] it was 0%. Moreover, in the assay on Coptotermes formosanus [7], the mortality is given as 71.3%.

`COC(=O)Cc1ccc2c(c1)C=CC(C)(C)O2`: the mortality with Coptotermes formosanus [1] was found to be 100%; with Coptotermes formosanus [2] it was 92.5%; with Coptotermes formosanus [3], 82.5%; with Coptotermes formosanus [4], 100%; in the assay on Coptotermes formosanus [5] it was 100%; in the assay on Coptotermes formosanus [6] it was 12.5%. The mortality in the assay with Coptotermes formosanus [7] was 100%.

Regarding `CC1(C)C=Cc2cc(C=O)ccc2O1`, the mortality in the assay on Coptotermes formosanus [1] was found to be 98.8%; with Coptotermes formosanus [2] it was 81.3%; with Coptotermes formosanus [3] it was 62.5%; in the assay on Coptotermes formosanus [4], 93.8%; in the assay on Coptotermes formosanus [5] it was 98.8%; in the assay with Coptotermes formosanus [6], 51.3%. Moreover, the mortality in the assay with Coptotermes formosanus [7] was 98.8%.

Consider `COC(=O)c1ccc(OC)c2c1OC(C)(C)C=C2`, for which the mortality in the assay on Coptotermes formosanus [9] is listed as 100%; with Coptotermes formosanus [1] it was 96.3%; with Coptotermes formosanus [10], 2.5%; with Coptotermes formosanus [8], 100%; in the assay with Coptotermes formosanus [11], 30%; with Coptotermes formosanus [12], 61.3%. In addition, the figures for the mortality in the assay on Coptotermes formosanus [13] and with Coptotermes formosanus [6] were 100% and 0%, respectively.

Take `CC(=O)c1ccc2c(c1O)C=CC(C)(C)O2`: the mortality in the assay on Coptotermes formosanus [9] is recorded as 100%; in the assay with Coptotermes formosanus [1], 100%; in the assay with Coptotermes formosanus [10], 1.3%; in the assay with Coptotermes formosanus [8], 100%; in the assay with Coptotermes formosanus [11] it was 66.3%; in the assay on Coptotermes formosanus [12] it was 98.8%. Further, the results for the mortality with Coptotermes formosanus [13] and with Coptotermes formosanus [6] were 100% and 0%, respectively.

As for `CC(C)CC(=O)N(C)CCC1=CC2C=CC(C)(C)OC2C=C1` (configuration not stated), the mortality in the assay with Coptotermes formosanus [1] is on record as 32.5%; in the assay with Coptotermes formosanus [2], 32.5%; with Coptotermes formosanus [3] it was 32.5%; with Coptotermes formosanus [4], 32.5%; in the assay with Coptotermes formosanus [5], 32.5%; in the assay on Coptotermes formosanus [6] it was 6.3%. The mortality in the assay with Coptotermes formosanus [7] came to 32.5%.

In the case of `CC1(C)C=Cc2cc(C(=O)O)ccc2O1`, the mortality in the assay with Coptotermes formosanus [1] was 1.3%; with Coptotermes formosanus [2], 0%; in the assay on Coptotermes formosanus [3] it was 0%; in the assay with Coptotermes formosanus [4], 0%; in the assay on Coptotermes formosanus [5], 2.5%; in the assay with Coptotermes formosanus [6], 0%. In the assay with Coptotermes formosanus [7], the mortality came out at 1.3%.

As to `COC(=O)c1ccc2c(c1)C=CC(C)(C)O2`, the mortality with Coptotermes formosanus [1] is given as 100%; in the assay with Coptotermes formosanus [2], 100%; with Coptotermes formosanus [3], 92.5%; in the assay on Coptotermes formosanus [4], 100%; in the assay on Coptotermes formosanus [5], 100%; in the assay with Coptotermes formosanus [6], 3.75%. Also, the mortality with Coptotermes formosanus [7] was found to be 100%.

On to `CC1(C)C=Cc2cc3c(cc2O1)OCO3` [6,6-DIMETHYL-6H-[1,3]DIOXOLO[4,5-G]CHROMENE], for which the mortality worked out at 85% in the assay on Coptotermes formosanus [9]; 75% with Coptotermes formosanus [1]; 2.5% with Coptotermes formosanus [10]; 12.5% with Coptotermes formosanus [11]; 23.8% in the assay on Coptotermes formosanus [12]; 82.5% in the assay with Coptotermes formosanus [13]. Further, the mortality with Coptotermes formosanus [6] is on record as 0%.

Turning to `CC1(C)C=Cc2cc(CO)ccc2O1` [EULATACHROMENE], the mortality with Coptotermes formosanus [1] is reported as 100%; in the assay on Coptotermes formosanus [2], 92.5%; in the assay with Coptotermes formosanus [3] it was 40%; with Coptotermes formosanus [4] it was 100%; in the assay on Coptotermes formosanus [5], 100%; with Coptotermes formosanus [6], 1.3%. Further, the mortality in the assay with Coptotermes formosanus [7] came out at 100%.
